IC50 and HDAC6 inhibitor rate data for 2 compounds are collected here from paper PMC11412156 (Journal of medicinal chemistry, 2024).

Assay type in all cases: biochemical
Experiment [1] has as its target HDAC1 (Homo sapiens, UniProt Q13547). Description: HDAC enzyme-based fluorogenic assay, HDAC1. Conditions: read-out: HDAC1 IC50; mean of at least three experiments.
Experiment [2] addresses HDAC2 (Homo sapiens, UniProt Q92769). Description: HDAC enzyme-based fluorogenic assay, HDAC2. Conditions: read-out: HDAC2 IC50; mean of at least three experiments.
Experiment [3] deals with HDAC3 (Homo sapiens, UniProt O15379). Kind of experiment: HDAC enzyme-based fluorogenic assay, HDAC3. The conditions noted are these: read-out: HDAC3 IC50; mean of at least three experiments.
Sequence of HDAC3 (O15379 whole entry): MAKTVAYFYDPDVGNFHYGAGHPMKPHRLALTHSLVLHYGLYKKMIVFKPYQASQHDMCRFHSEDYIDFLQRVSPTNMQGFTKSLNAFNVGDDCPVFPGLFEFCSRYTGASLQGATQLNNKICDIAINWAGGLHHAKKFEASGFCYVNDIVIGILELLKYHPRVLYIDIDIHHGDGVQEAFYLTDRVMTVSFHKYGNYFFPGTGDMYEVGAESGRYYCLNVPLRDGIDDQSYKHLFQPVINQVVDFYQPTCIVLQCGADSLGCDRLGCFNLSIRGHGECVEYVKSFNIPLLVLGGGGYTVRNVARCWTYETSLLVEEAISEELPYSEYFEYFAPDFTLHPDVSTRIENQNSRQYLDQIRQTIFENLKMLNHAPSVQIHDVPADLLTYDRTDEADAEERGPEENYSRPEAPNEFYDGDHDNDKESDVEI
Sequence of HDAC3 (Q9Y618 395-489 partner limits assumed): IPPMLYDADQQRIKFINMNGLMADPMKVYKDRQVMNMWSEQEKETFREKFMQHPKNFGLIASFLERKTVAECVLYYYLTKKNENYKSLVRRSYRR
For experiment [4], the target named is T1, HDAC6 (Homo sapiens, UniProt Q9UBN7).
T1 sequence (Q9UBN7 1-1215): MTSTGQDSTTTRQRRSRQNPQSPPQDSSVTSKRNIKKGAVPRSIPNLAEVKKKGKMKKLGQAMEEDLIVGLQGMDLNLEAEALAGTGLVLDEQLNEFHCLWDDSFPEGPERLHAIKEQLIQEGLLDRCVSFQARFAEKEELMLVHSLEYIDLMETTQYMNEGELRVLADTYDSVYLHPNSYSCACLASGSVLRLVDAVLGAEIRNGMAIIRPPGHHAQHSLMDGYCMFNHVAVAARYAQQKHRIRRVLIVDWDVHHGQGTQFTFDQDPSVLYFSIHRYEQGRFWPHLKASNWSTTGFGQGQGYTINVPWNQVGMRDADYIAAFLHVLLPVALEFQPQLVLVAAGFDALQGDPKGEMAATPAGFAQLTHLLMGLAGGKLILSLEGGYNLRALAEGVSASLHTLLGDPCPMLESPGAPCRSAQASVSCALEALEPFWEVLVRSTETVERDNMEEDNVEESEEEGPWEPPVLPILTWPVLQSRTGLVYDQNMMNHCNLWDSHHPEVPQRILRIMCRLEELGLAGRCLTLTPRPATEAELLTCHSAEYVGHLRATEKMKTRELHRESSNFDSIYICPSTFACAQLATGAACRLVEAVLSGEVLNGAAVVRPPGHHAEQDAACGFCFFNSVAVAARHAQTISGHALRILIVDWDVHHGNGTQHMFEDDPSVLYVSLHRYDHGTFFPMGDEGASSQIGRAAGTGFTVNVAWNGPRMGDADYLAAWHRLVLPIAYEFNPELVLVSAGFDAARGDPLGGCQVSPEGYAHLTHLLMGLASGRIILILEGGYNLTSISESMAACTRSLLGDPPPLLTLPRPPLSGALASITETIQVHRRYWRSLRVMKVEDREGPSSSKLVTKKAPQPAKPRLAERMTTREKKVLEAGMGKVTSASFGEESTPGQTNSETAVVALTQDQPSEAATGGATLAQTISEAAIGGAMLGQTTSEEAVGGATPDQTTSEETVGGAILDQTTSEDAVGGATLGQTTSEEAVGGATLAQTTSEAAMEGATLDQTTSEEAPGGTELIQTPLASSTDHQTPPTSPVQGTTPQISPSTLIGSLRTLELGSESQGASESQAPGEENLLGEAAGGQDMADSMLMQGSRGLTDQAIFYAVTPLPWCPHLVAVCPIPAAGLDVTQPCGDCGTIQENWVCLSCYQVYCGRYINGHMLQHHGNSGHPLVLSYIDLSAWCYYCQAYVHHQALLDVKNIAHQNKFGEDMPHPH
Kind of experiment: HDAC enzyme-based fluorogenic assay, HDAC6. The conditions noted are these: for HDAC6 inhibitor rate: final concentration of 2 μM, preliminary screen; for IC50: read-out: HDAC6 IC50, mean of at least three experiments.

The target in experiment [5] is T2, HDAC8 (Homo sapiens, UniProt Q9BY41).
T2 sequence (Q9BY41 1-377): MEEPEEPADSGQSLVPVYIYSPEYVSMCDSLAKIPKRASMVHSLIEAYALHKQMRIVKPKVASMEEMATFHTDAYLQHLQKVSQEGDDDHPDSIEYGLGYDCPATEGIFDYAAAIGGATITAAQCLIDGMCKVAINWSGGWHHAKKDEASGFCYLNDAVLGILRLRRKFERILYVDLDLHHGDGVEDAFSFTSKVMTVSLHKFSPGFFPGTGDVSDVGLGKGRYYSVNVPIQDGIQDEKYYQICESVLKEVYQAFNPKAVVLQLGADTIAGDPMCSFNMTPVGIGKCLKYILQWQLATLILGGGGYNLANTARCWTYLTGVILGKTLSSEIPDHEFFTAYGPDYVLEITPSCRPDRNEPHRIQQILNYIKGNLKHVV
Kind of experiment: HDAC enzyme-based fluorogenic assay, HDAC8. Conditions: read-out: HDAC8 IC50; mean of at least three experiments.

Experiment [6] has as its target T3, HDAC11 (Homo sapiens, UniProt Q96DB2).
T3 sequence (Q96DB2 1-347): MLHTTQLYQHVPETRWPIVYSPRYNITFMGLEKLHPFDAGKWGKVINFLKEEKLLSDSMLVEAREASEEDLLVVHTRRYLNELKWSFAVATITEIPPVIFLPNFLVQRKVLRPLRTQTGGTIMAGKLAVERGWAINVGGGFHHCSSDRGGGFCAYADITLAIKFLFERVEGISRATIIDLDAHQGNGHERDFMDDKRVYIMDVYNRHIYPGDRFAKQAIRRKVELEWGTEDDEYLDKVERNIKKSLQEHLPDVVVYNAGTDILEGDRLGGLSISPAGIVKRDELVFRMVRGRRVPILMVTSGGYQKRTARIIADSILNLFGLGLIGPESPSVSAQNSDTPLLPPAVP
Kind of experiment: HDAC enzyme-based fluorogenic assay, HDAC11. Conditions: read-out: HDAC11 IC50; mean of at least three experiments.

Sequence of HDAC1 (Q13547 whole entry): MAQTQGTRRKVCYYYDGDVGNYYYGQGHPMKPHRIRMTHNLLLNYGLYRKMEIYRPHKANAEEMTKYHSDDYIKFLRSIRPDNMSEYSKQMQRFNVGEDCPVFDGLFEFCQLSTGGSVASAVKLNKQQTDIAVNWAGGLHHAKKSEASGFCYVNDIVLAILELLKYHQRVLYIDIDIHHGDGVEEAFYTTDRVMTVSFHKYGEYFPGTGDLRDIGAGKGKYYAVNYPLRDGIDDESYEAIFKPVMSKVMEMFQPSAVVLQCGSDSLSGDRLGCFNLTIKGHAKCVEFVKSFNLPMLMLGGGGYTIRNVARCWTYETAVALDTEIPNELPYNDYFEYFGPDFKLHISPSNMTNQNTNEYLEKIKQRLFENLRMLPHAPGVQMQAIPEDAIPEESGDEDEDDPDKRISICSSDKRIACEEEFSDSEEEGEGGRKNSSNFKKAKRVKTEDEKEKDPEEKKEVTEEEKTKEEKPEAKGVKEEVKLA
Sequence of HDAC2 (Q92769 whole entry): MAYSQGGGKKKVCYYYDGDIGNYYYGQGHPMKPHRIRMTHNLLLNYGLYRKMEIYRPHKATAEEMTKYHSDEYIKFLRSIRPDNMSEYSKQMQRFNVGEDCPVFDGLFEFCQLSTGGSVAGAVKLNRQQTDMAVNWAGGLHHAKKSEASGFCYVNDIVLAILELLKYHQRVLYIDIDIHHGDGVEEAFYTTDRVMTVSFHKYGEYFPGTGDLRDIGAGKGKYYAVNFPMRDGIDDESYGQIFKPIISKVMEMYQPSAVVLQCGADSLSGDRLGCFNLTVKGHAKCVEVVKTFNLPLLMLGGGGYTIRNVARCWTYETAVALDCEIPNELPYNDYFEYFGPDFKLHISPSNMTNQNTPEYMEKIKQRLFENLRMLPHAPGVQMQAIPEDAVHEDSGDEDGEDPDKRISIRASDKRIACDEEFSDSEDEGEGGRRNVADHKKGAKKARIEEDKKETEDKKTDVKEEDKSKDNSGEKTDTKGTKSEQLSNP

For `C[C@]12CC3CC(Nc4c(Nc5ccc(C(=O)N6CCC[C@H](C(=O)NCCCCCC(=O)NO)C6)cc5)c(=O)c4=O)(C1)C[C@@](C)(C3)C2` [Compound 40c, (S)-1-(4-((2-(((1r,3R,5S,7r)-3,5-Dimethyladamantan-1-yl)amino)-3,4-dioxocyclobut-1-en-1-yl)amino)benzoyl)-N-(6-(hydroxyamino)-6-oxohexyl)piperidine-3-carbo-xamide], the IC50 in experiment [1] worked out at 1030 nM; in experiment [2], 3100 nM; in experiment [3], 4150 nM; in experiment [4], 282 nM; in experiment [5], 520 nM; in experiment [6] it was 84 nM. The HDAC6 inhibitor rate in experiment [4] stood at 98.49%.
As for `CC12CC3CC(C)(C1)CC(Nc1c(Nc4ccc(C(=O)N5CCC[C@H](C(=O)NCCCCCCC(=O)NO)C5)cc4)c(=O)c1=O)(C3)C2` [Compound 40d, (S)-1-(4-((2-(((1r,3R,5S,7r)-3,5-Dimethyladamantan-1-yl)amino)-3,4-dioxocyclobut-1-en-1-yl)amino)benzoyl)-N-(7-(hydroxyamino)-7-oxoheptyl)piperidine-3-carboxamide], the IC50 in experiment [1] worked out at 415 nM; in experiment [2], 2530 nM; in experiment [3], 1450 nM; in experiment [4], 162 nM; in experiment [5] it was 158 nM; in experiment [6], 241 nM. This compound also registered an HDAC6 inhibitor rate in experiment [4] of 99.66%.

As usually defined, the IC50 is the concentration that inhibits the measured activity by half.
